From patent publication US20230203004A1, “RSV INHIBITING 3-SUBSTITUTED QUINOLINE AND CINNOLINE DERIVATIVES” (Janssen Sciences Ireland Unlimited Company, priority 2020, published 2023)
Like-named read-outs stand apart in the source and are kept apart here.

Columns and labels:
rgRSV224 virus = assay: Antiviral activity: rgRSV224 (GFP) replication in HeLa cells; type: cell-based, respiratory syncytial virus (RSV)
Procedure, shortened: (§1)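 Over 3 days at 37 °C, compound titrations (4-fold steps, nine dilutions) were tested on HeLa cells infected with rgRSV224 (MOI = 1), inhibition of GFP signal giving EC50. In parallel plates, ATP content of HeLa cells after 3-day exposure defined CC50.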

[1] = Cytotoxicity in HeLa cells (ATP content, ATPlite kit); type: cell-based; conditions: human
Procedure, shortened: as §1

[2] = human respiratory syncytial virus, HeLa, comparison table 5.3, antiviral RSV assay of Example 5.1
[3] = human respiratory syncytial virus, HeLa, 72 h, read-out: RSV HELA EC50, HeLa cells, rgRSV224 MOI = 1, GFP expression three days post-virus exposure, averaged data of several repeat experiments

Row | SMILES | EC50 (rgRSV224 virus; [2]) [µM] | EC50 (rgRSV224 virus; read-out: RSV HELA EC50, HeLa cells, rgRSV224 MOI = 1, GFP expression three days post-virus exposure, averaged data of several repeat experiments) [µM] | CC50 at 3 days ([1]; CC50) [µM] | CC50 at 3 days ([1]; TOX HELA CC50) [µM] | EC50 (rgRSV224 virus; [3]) [µM]
1 | COc1cc(C(=O)NC[C@](O)(c2cc(C(C)(C)O)c(F)c(-c3ccc(F)cc3)n2)C(F)(F)F)cc2cc(C)nnc12 [compound 234] | 0.0006 | 0.00082 | 23 | 23 | –
2 | COc1cc(C(=O)NC[C@](O)(c2cc(C(C)(C)NS(C)(=O)=O)c(F)c(-c3ccc(F)cc3)n2)C(F)(F)F)cc2cc(C)nnc12 [compound 237, (-)Methoxy-3-Methyl-N-{3,3,3-Trifluoro-2-[5-Fluoro-6-(4-Fluorophenyl)-4-{2-[(MethaneSulfonyl)Amino]propan-2-yl}Pyridin-2-yl]-2-Hydroxypropyl}Cinnoline-6-Carboxamide] | – | – | – | 51 | 0.0051
3 | COc1cc(C(=O)NC[C@](O)(c2cc(C(C)(C)O)c(F)c(-c3ccc(F)c(C)c3)n2)C(F)(F)F)cc2cc(C)nnc12 [compound 238, (+)Methoxy-3-Methyl-N-{3,3,3-Trifluoro-2-[5-Fluoro-6-(4-Fluoro-3-Methylphenyl)-4-(2-Hydroxypropan-2-yl)Pyridin-2-yl]-2-Hydroxypropyl}Cinnoline-6-Carboxamide] | – | – | – | 23 | 0.0029
4 | COc1cc(C(=O)NC[C@](O)(c2cc(C(C)(C)O)c(F)c(-c3ccc(F)c(F)c3)n2)C(F)(F)F)cc2cc(C)nnc12 [compound 239, (-)-N-{2-[6-(3,4-Difluorophenyl)-5-Fluoro-4-(2-Hydroxypropan-2-yl)Pyridin-2-yl]-3,3,3-Trifluoro-2-Hydroxypropyl}-8-Methoxy-3-Methylcinnoline-6-Carboxamide] | – | – | – | 19 | 0.0005
5 | COc1cc(C(=O)NC[C@](O)(c2nc(-c3ccc(F)cc3)c(F)c(C(C)(C)O)c2F)C(F)(F)F)cc2cc(C)nnc12 [compound 240, (-)-N-{2-[3,5-Difluoro-6-(4-Fluorophenyl)-4-(2-Hydroxypropan-2-yl)Pyridin-2-yl]-3,3,3-Trifluoro-2-Hydroxypropyl}-8-Methoxy-3-Methylcinnoline-6-Carboxamide] | – | – | – | 46 | 0.0012
6 | COc1cc(C(=O)NC[C@](O)(c2nc(-c3ccc(F)cc3)c(F)c(C(C)(C)NC(C)=O)c2F)C(F)(F)F)cc2cc(C)nnc12 [compound 241, (-)-N-{2-[4-(2-Acetamidopropan-2-yl)-3,5-Difluoro-6-(4-Fluorophenyl)Pyridin-2-yl]-3,3,3-Trifluoro-2-Hydroxypropyl}-8-Methoxy-3-Methylcinnoline-6-Carboxamide] | – | – | – | 50 | 0.0015
7 | COc1cc(C(=O)NC[C@@](O)(c2nc(-c3ccc(F)cc3)c(F)c(C(C)(C)NC(C)=O)c2F)C(F)(F)F)cc2cc(C)nnc12 [compound 242, (+)-N-{2-[4-(2-Acetamidopropan-2-yl)-3,5-Difluoro-6-(4-Fluorophenyl)Pyridin-2-yl]-3,3,3-Trifluoro-2-Hydroxypropyl}-8-Methoxy-3-Methylcinnoline-6-Carboxamide] | – | – | – | 48 | 0.17
8 | COc1cc(C(=O)NC[C@](O)(c2nc(-c3ccc(F)cc3)c(F)c(C(C)(C)NS(C)(=O)=O)c2F)C(F)(F)F)cc2cc(C)nnc12 [compound 243, (-)-N-{2-[3,5-Difluoro-6-(4-Fluorophenyl)-4-{2-[(Methanesulfoyl)Amino]Propan-2-yl}Pyridin-2-yl]-3,3,3-Trifluoro-2-Hydroxypropyl}-8-Methoxy-3-Methylcinnoline-6-Carboxamide] | – | – | – | 45 | 0.003
9 | COc1cc(C(=O)NC[C@@](O)(c2nc(-c3ccc(F)cc3)c(F)c(C(C)(C)NS(C)(=O)=O)c2F)C(F)(F)F)cc2cc(C)nnc12 [compound 244, (+)-N-{2-[3,5-Difluoro-6-(4-Fluorophenyl)-4-{2-[(Methanesulfonyl)Amino]Propan-2-yl}Pyridin-2-yl]-3,3,3-Trifluoro-2-Hydroxypropyl}-8-Methoxy-3-Methylcinnoline-6-Carboxamide] | – | – | – | 43 | 0.058
10 | COc1cc(C(=O)NC[C@](O)(c2nc(-c3ccc(F)cc3)c(Cl)c(C(C)(C)O)c2F)C(F)(F)F)cc2cc(C)nnc12 [compound 247, (-)-N-{2-[5-Chloro-3-Fluoro-6-(4-Fluorophenyl)-4-(2-Hydroxypropan-2-yl)Pyridin-2-yl]-3,3,3-Trifluoro-2-Hydroxypropyl}-8-Methoxy-3-Methylcinnoline-6-Carboxamide] | – | – | – | 51 | 0.0019
11 | COc1cc(C(=O)NC[C@](O)(c2cc(C(C)(C)O)c(Cl)c(-c3ccc(F)cc3)n2)C2CC2)cc2cc(C)nnc12 [compound 251, N-{(-)[5-Chloro-6-(4-Fluorophenyl)-4-(2-Hydroxypropanyl)Pyridinyl]CyclopropylHydroxyethyl}-8-Methoxy-3-Methylcinnoline-6-Carboxamide] | – | – | – | 28 | 0.00053
12 | COc1cc(C(=O)NC[C@](O)(c2cc(C(C)(C)O)c(F)c(-c3ccc(F)cc3)n2)C2CC2)cc2cc(C)nnc12 [compound 252, (-)-N-{2-Cyclopropyl-2-[5-Fluoro-6-(4-Fluorophenyl)-4-(2-Hydroxypropan-2-yl)Pyridin-2-yl]-2-Hydroxyethyl}-8-Methoxy-3-Methylcinnoline-6-Carboxamide] | 0.0003 | – | 38 | 43 | 0.0003
13 | Cc1cc2cc(C(=O)NC[C@](O)(c3cc(C(C)(C)O)c(Cl)c(-c4ccc(F)cc4)n3)C3CC3)cc(OC3CC3)c2nn1 [compound 264, (-)-N-{2-[5-Chloro-6-(4-Fluorophenyl)-4-(2-Hydroxypropan-2-yl)Pyridin-2-yl]-2-Cyclopropyl-2-Hydroxyethyl}-8-(Cyclopropyloxy)-3-Methylcinnoline-6-Carboxamide] | – | – | – | 32 | 0.00087
14 | Cc1cc2cc(C(=O)NC[C@](O)(c3cc(C(C)(C)O)c(F)c(-c4ccc(F)cc4)n3)C3CC3)cc(OC3CC3)c2nn1 [compound 265, (-)-N-{2-Cyclopropyl-2-[5-Fluoro-6-(4-Fluorophenyl)-4-(2-Hydroxypropan-2-yl)Pyridin-2-yl]-2-Hydroxyethyl}-8-(Cyclopropyloxy)-3-Methylcinnoline-6-Carboxamide] | – | – | – | 39 | 0.00069
15 | COc1cc(C(=O)NC[C@](O)(c2cc(C(C)(C)O)c(F)c(-c3ccc(F)cc3)n2)C(F)(F)F)cc2cc(C(F)F)nnc12 [compound 266, (-)(Difluoromethyl)-8-Methoxy-N-{3,3,3-Trifluoro-2-[5-Fluoro-6-(4-Fluorophenyl)-4-(2-Hydroxypropan-2-yl)Pyridin-2-yl]-2-Hydroxypropyl}Cinnoline-6-Carboxamide] | – | – | – | 25 | 0.0035
16 | COc1cc(C(=O)NC[C@](O)(c2cc(C(C)(C)O)c(Cl)c(-c3ccc(F)cc3)n2)C(F)(F)F)cc2cc(C(F)F)nnc12 [compound 267, (-)-N-{2-[5-Chloro-6-(4-Fluorophenyl)-4-(2-Hydroxypropan-2-yl)Pyridin-2-yl]-3,3,3-Trifluoro-2-Hydroxypropyl}-3-(Difluoromethyl)-8-Methoxycinnoline-6-Carboxamide] | – | – | – | 14 | 0.003
17 | COc1cc(C(=O)NC[C@](O)(c2cc(C(C)(C)O)c(Cl)c(-c3ccc(F)cc3)n2)C2CC2)cc2cc(C(F)F)nnc12 [compound 268, N-{(-)[5-Chloro-6-(4-Fluorophenyl)-4-(2-Hydroxypropanyl)Pyridinyl]CyclopropylHydroxyethyl}-3-(Difluoromethyl)-8-Methoxycinnoline-6-Carboxamide] | – | – | – | 18 | 0.00067
